One may read the Ki as the equilibrium dissociation constant of an inhibitor or competing ligand from its target. What is called GI50 is the concentration giving 50% growth inhibition. Read a low GI50 as greater sensitivity of the cells.

14 compounds from US11111245B2, “Derivatives of N-cycloalkyl/heterocycloalkyl-4-(imidazo[1,2-a]pyridine)pyrimidin-2-amine as therapeutic agents” (Aucentra Therapeutics Pty Ltd, priority 2017, dated 2021) can be followed below.

The target of test [1] is CDK4/D1 (Homo sapiens, UniProt P11802). Nature of the test: ADP Glo Kinase assay CDK4/D1. The test is classed as biochemical. To be noted: CDK4D1; compound at 10 μM; read-out: residual activity (%) at 10 μM CDK4D1. The protocol:
(§1) Eurofins Pharma Discovery or Reaction Biology Corporation Kinase Profiler services were used to measure inhibition of CDKs and other kinases by radiometric assay. Inhibition of CDK4/D1, CDK6/D3 and CDK9/T1 were also determined in-house using ADP Glo Kinase assays (Promega Corporation, Madison, USA). Briefly, the kinase reaction for CDK4/D1 and CDK6/D3 was performed with kinase reaction buffer ([…] Tris base pH 7.5, 20 mM MgCl2, 0.4 mM DTT), 0.1 mg/ml BSA and RB-CTF substrate (retinoblastoma protein 1 C-terminal fraction). For CDK9/CyclinT1, the kinase reaction was performed with standard assay buffer and Kinase Dilution Buffer and RBER-IRStide substrate. Serial dilutions of 1:3 were prepared for test compounds for 10 concentrations (from 10 μM to 0.5 nM). The kinase reactions were started by addition of ATP, incubated for 40 min at 37° C. and then stopped by adding 10 μL of ADP Glo reagent. After incubation at room temperature in the dark for 40 min, 20 μL of kinase detection reagent was added per well and incubated for 40 min. Luminescence was measured using an EnVision Multilabel plate reader (PerkinElmer, Buckinghamshire, UK). Positive and negative controls were performed in the presence and absence of CDK kinases, respectively. Half-maximal inhibition (IC50) values were calculated using a 4-parameter logistic non-linear regression model with Graphpad prism (Version 6.0). Apparent inhibition constants (Ki) values were calculated from Km (ATP) and IC50 values for the respective kinases.

For test [2], the target named is CDK9/T1 (Homo sapiens, UniProt P50750). As to the kind of experiment: ADP Glo Kinase assay CDK9/T1. Type of test: biochemical. To be noted: CDK9T1; read-out: CDK inhibition, Ki (μM) CDK9T1. The protocol:
as §1
A general note: ADP-Glo first removes unused ATP, then detects ADP through luciferase.

The target of test [3] is T1, CDKs and other kinases (Homo sapiens, UniProt P24941).
T1 construct: other: CDK2A; residual activity (%) at 10 μM CDK2A; compound at 10 μM
Nature of the test: Radiometric kinase assay (Eurofins Pharma Discovery or Reaction Biology Corporation Kinase Profiler). The test is classed as biochemical. To be noted: CDK2A; for remaining activity at 10 µM: compound at 10 μM, read-out: residual activity (%) at 10 μM CDK2A; for Ki: read-out: CDK inhibition, Ki (μM) CDK2A. The protocol: as §1

Test [4] has as its target T2, CDKs and other kinases (Homo sapiens, UniProt P50613).
T2 construct: other: CDK7H; residual activity (%) at 10 μM CDK7H; compound at 10 μM
The test is described as above. Type of test: biochemical. To be noted: CDK7H; for remaining activity at 10 µM: compound at 10 μM, read-out: residual activity (%) at 10 μM CDK7H; for Ki: read-out: CDK inhibition, Ki (μM) CDK7H. The protocol:
as §1

Test [5] has as its target T3, CDKs and other kinases (Homo sapiens, UniProt P06493).
T3 construct: other: CDK1B; residual activity (%) at 10 μM CDK1B; compound at 10 μM
The description is as above. To be noted: CDK1B; for remaining activity at 10 µM: compound at 10 μM, read-out: residual activity (%) at 10 μM CDK1B; for Ki: read-out: CDK inhibition, Ki (μM) CDK1B. The test is classed as biochemical. On the procedure: as §1

The test system of test [6] is leukemia cell lines. Nature of the test: Resazurin cell viability assay on leukemia cell lines (72 h growth inhibition, GI50). Type of test: cell-based. To be noted: Homo sapiens, MV4-11 cells. On the procedure: Compounds from Example 1 were subjected to a standard MTT (3-(4,5-dimethylthiazol-2-yl)-2,5-diphenyltetrazolium bromide) and resazurin assays on solid tumour cell lines and leukemia cell lines, respectively, as previously reported (Wang S et al., J Med Chem 47:1662-1675, 2004 and Diab S. et al. CheMedChem 9:962-972, 2014). Compound concentrations required to inhibit 50% of cell growth (GI50) were calculated using non-linear regression analysis.

Each structure is given as a SMILES string.

Sequence of CDK9/T1 (P50750 whole entry): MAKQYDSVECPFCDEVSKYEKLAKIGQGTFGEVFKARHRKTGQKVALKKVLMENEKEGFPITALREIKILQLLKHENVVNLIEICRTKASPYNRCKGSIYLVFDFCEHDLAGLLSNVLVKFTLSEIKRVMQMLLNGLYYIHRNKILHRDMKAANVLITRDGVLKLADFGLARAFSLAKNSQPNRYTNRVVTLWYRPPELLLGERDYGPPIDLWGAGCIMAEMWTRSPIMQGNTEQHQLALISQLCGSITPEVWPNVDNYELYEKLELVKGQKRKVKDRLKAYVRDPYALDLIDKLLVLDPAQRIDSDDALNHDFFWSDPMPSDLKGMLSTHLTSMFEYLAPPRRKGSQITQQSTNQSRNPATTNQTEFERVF
Sequence of CDK9/T1 (O60563 whole entry partner): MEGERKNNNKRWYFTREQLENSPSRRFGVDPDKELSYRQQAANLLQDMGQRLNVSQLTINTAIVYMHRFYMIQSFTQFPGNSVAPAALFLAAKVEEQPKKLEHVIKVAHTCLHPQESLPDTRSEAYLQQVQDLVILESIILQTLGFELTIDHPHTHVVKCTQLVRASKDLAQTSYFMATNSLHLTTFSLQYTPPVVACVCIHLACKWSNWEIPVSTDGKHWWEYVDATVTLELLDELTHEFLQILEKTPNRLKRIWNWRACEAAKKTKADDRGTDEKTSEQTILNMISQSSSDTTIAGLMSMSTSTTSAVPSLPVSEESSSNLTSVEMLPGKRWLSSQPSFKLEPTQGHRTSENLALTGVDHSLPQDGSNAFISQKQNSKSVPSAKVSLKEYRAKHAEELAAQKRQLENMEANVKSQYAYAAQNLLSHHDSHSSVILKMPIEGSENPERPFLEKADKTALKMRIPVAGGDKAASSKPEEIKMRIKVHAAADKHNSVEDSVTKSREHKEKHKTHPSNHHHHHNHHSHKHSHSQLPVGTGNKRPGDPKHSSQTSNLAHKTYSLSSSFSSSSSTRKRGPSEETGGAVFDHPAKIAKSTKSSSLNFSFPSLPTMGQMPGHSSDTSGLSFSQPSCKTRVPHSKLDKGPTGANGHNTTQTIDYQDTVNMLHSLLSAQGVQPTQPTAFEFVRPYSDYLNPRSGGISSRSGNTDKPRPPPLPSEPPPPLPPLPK
T2 sequence (P50613 whole entry): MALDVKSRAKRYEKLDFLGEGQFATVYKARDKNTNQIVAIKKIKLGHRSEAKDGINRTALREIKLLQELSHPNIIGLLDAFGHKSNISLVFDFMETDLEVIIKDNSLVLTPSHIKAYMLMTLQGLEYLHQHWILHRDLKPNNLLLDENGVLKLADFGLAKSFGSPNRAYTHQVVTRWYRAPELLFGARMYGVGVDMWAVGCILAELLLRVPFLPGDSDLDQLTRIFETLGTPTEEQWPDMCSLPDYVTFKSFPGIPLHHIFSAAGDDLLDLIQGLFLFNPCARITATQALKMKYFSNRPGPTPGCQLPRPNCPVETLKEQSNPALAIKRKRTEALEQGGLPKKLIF
T3 sequence (P06493 whole entry): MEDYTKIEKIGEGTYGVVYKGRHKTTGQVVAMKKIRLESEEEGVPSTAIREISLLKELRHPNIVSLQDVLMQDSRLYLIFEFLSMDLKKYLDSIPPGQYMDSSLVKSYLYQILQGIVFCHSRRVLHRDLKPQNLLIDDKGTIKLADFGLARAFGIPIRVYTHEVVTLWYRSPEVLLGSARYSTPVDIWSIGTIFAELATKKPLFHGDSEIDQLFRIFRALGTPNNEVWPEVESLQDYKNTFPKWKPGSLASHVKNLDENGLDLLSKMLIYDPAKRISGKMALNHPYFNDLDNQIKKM
Sequence of CDK4/D1 (P11802 whole entry): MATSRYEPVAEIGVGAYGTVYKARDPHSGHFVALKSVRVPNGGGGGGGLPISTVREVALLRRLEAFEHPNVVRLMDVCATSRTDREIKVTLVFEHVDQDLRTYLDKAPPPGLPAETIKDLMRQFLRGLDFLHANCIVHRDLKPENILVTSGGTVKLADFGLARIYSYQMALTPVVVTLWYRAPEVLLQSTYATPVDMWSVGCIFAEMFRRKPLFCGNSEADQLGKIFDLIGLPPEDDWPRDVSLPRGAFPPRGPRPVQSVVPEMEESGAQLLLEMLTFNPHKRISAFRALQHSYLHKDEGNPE
Sequence of CDK4/D1 (P24385 whole entry partner): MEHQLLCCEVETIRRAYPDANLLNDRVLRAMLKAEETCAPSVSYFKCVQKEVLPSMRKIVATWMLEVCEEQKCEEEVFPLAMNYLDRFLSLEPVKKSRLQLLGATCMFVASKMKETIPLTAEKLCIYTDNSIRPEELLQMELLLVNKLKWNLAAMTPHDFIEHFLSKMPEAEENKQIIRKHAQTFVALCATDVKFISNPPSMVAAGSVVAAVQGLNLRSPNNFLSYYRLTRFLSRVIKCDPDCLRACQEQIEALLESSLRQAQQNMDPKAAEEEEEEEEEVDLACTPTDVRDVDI

In the case of `Cc1cnc(N[C@H]2CC[C@H](N3CCC3)CC2)nc1-c1cnc2ccc(-c3ccccc3)cn12` [Compound 135, N-((1r,4r)-4-(Azetidin-1-yl)cyclohexyl)-5-methyl-4-(6-phenylimidazo[1,2-a]pyridin-3-yl)pyrimidin-2-amine], the remaining activity at 10 µM in test [1] was found to be 28%; in test [3], 57%; in test [4], 13%; in test [5], 61%. The inhibitory constant (Ki) in test [2] amounted to 1.14 µM. The compound further had a concentration for 50% growth inhibition (GI50) in test [6] of 0.564 ± 0.047 µM.
As for `Cc1cnc(N[C@H]2CC[C@@H](N3CCC3)CC2)nc1-c1cnc2ccc(-c3ccccc3)cn12` [Compound 136, N-((1s,4s)-4-(Azetidin-1-yl)cyclohexyl)-5-methyl-4-(6-phenylimidazo[1,2-a]pyridin-3-yl)pyrimidin-2-amine], the remaining activity at 10 µM in test [1] is 48%; in test [3], 59%; in test [4], 36%; in test [5], 22%. The inhibition constant Ki in test [2] was determined as 2.77 µM. It took 0.297 ± 0.001 µM to inhibit growth in test [6] by half (GI50).
For `Fc1cnc(N[C@H]2CC[C@H](N3CCCC3)CC2)nc1-c1cnc2ccc(-c3ccccc3)cn12` [Compound 137, 5-Fluoro-4-(6-phenylimidazo[1,2-a]pyridin-3-yl)-N-((1r,4r)-4-(pyrrolidin-1-yl)cyclohexyl)pyrimidin-2-amine], the remaining activity at 10 µM amounted to 7% in test [1], 0% in test [3] and 3% in test [5]. Besides, the inhibitory constant (Ki) in test [2] was determined as 0.003 µM; in test [4] it was 0.04 µM. In test [6], this compound came in with a 50% growth inhibitory concentration (GI50) of under 0.01 µM.
For the compound `Fc1cnc(N[C@H]2CC[C@H](N3CCC3)CC2)nc1-c1cnc2ccc(-c3ccccc3)cn12` [Compound 138, N-((1r,4r)-4-(Azetidin-1-yl)cyclohexyl)-5-fluoro-4-(6-phenylimidazo[1,2-a]pyridin-3-yl)pyrimidin-2-amine], the results for the remaining activity at 10 µM in test [1] and in test [4] were 6% and 0%, respectively. The Ki turned out to be 0.006 µM in test [2], 0.111 µM in test [3] and 0.076 µM in test [5]. The same compound gave a GI50 in test [6] of under 0.001 µM.
As for `Cc1cnc(N[C@H]2CC[C@H](N3CCCC3)CC2)nc1-c1cnc2ccc(-c3ccccc3)cn12` [Compound 140, 5-Methyl-4-(6-phenylimidazo[1,2-a]pyridin-3-yl)-N-((1r,4r)-4-(pyrrolidin-1-yl)cyclohexyl)pyrimidin-2-amine], the remaining activity at 10 µM in test [1] was 65%; in test [3] it was 61%; in test [5], 39%. Also, the figures for the inhibitory constant (Ki) in test [2] and in test [4] were 0.53 µM and 0.597 µM, respectively. In test [6], this compound showed a GI50 of 0.242 ± 0.132 µM.
For the compound `Cc1cnc(N[C@H]2CC[C@H](N3CCCC3)CC2)nc1-c1cnc2ccc(Nc3cncnc3)cn12` [Compound 142, 3-(5-Methyl-2-(((1r,4r)-4-(pyrrolidin-1-yl)cyclohexyl)amino)pyrimidin-4-yl)-N-(pyrimidin-5-yl)imidazo [1,2-a]pyridin-6-amine], the remaining activity at 10 µM in test [1] worked out at 8%; in test [3], 15%; in test [4], 39%; in test [5], 23%. Moreover, in test [2], the Ki worked out at 0.025 µM. Further, the GI50 in test [6] came to 0.064 ± 0.017 µM.
Take `Fc1cnc(NC2CCNCC2)nc1-c1cnc2ccc(-c3ccccc3)cn12` [Compound 143, 5-Fluoro-4-(6-phenylimidazo[1,2-a]pyridin-3-yl)-N-(piperidin-4-yl)pyrimidin-2-amine]: the remaining activity at 10 µM in test [1] stood at 4%; in test [3], 4%; in test [5] it was 3%. For the same compound, the Ki in test [2] was 0.108 µM; in test [4], 0.088 µM. The same compound showed a GI50 in test [6] of 0.003 ± 0.001 µM.
`CN1CCC(Nc2ncc(F)c(-c3cnc4ccc(-c5ccccc5)cn34)n2)CC1` [Compound 144, 5-Fluoro-N-(1-Methylpiperidin-4-yl)-4-(6-phenylimidazo [1,2-a]pyridin-3-yl)pyrimidin-2-amine]: the remaining activity at 10 µM in test [1] turned out to be 20%; in test [3], 8%. In addition, the results for the Ki in test [2], in test [4] and in test [5] were 0.138 µM, 0.072 µM and 0.047 µM, respectively. In test [6], the 50% growth inhibitory concentration (GI50) was 0.005 ± 0.003 µM.
For the compound `Fc1cnc(NC2CCN(CC3CCCC3)CC2)nc1-c1cnc2ccc(-c3ccccc3)cn12` [Compound 146, N-(1-(Cyclopentylmethyl)piperidin-4-yl)-5-fluoro-4-(6-phenylimidazo[1,2-a]pyridin-3-yl)pyrimidin-2-amine], the remaining activity at 10 µM amounted to 34% in test [1], 34% in test [3] and 16% in test [5]. The inhibition constant (Ki) in test [2] came out at 1.82 µM; in test [4], 0.37 µM. This compound also had a GI50 in test [6] of 0.026 ± 0.003 µM.
Consider `CS(=O)(=O)N1CCC(Nc2ncc(F)c(-c3cnc4ccc(-c5ccccc5)cn34)n2)CC1` [Compound 147, 5-Fluoro-N-(1-(methylsulfonyl)piperidin-4-yl)-4-(6-phenylimidazo[1,2-a]pyridin-3-yl)pyrimidin-2-amine], for which the figures for the remaining activity at 10 µM in test [1] and in test [4] were 70% and 54%, respectively. The figures for the Ki in test [2], in test [3] and in test [5] were 0.711 µM, 0.015 µM and 0.334 µM, respectively. Further, the concentration for 50% growth inhibition (GI50) in test [6] is 0.62 ± 0.26 µM.
Take `CN1CCC(Nc2ncc(F)c(-c3cnc4ccc(-c5ccc(S(=O)(=O)N(C)C)cc5)cn34)n2)CC1` [Compound 148, 4-(3-(5-Fluoro-2-((1-methylpiperidin-4-yl)amino)pyrimidin-4-yl)imidazo[1,2-a]pyridin-6-yl)-N,N-dimethylbenzenesulfonamide]: the remaining activity at 10 µM in test [1] is 70%; in test [3], 46%; in test [4], 18%; in test [5], 27%. The Ki in test [2] stood at 0.261 µM. In test [6], the GI50 came out at 0.023 ± 0.007 µM.
Regarding `CN1CCC(Nc2ncc(F)c(-c3cnc4ccc(Nc5cncnc5)cn34)n2)CC1` [Compound 149, 3-(5-Fluoro-2-((1-methylpiperidin-4-yl)amino)pyrimidin-4-yl)-N-(pyrimidin-5-yl)imidazo[1,2-a]pyridin-6-amine], the remaining activity at 10 µM stood at 3% in test [1], 20% in test [3] and 9% in test [5]. Further, the Ki in test [2] is 0.178 µM; in test [4], 0.313 µM. Also, halving of growth in test [6] (GI50) required 0.145 ± 0.001 µM.
As to `Cc1cnc(N[C@H]2CC[C@H](N)CC2)nc1-c1cnc2cc(C(F)(F)F)c(-c3ccccc3)cn12` [Compound 150, (1r,4r)-N1-(5-Methyl-4-(6-phenyl-7-(trifluoromethyl)imidazo[1,2-a]pyridin-3-yl)pyrimidin-2-yl)cyclohexane-1,4-diamine], the values for the remaining activity at 10 µM in test [1], in test [3] and in test [5] were 21%, 11% and 45%, respectively. The values for the inhibition constant (Ki) in test [2] and in test [4] were 0.149 µM and 0.372 µM, respectively. Besides, halving of growth in test [6] (GI50) required 0.42 ± 0.02 µM.
On to `Cc1cnc(N[C@H]2CC[C@H](C)CC2)nc1-c1cnc2ccc(-c3ccccc3)cn12` [Compound 151, 5-Methyl-N-((1r,4r)-4-methylcyclohexyl)-4-(6-phenylimidazo[1,2-a]pyridin-3-yl)pyrimidin-2-amine], for which the remaining activity at 10 µM in test [1] came to 93%; in test [3], 87%; in test [4] it was 94%; in test [5] it was 96%. Further, the inhibition constant (Ki) in test [2] is over 5 µM. Besides, in test [6], growth was halved (GI50) at 8.643 ± 0.01 µM.
